One assay has as its target KDR (Homo sapiens, UniProt P35968). Description: KDR enzyme assay, coupled enzyme assay. The assay is classed as biochemical. The note with it: 300 μM ATP, 10 μM poly E4Y, 30 nM KDR, 37° C. The method, boiled down:
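Coupled enzyme (PK/LDH, NADH) assay with 30 nM KDR in 200 mM HEPES 7.5, 10 mM MgCl2, 25 mM NaCl, 1 mM DTT, 1.5% DMSO; 300 μM ATP, 10 μM poly E4Y. Compound at 30 μM final, preincubated ~10 min at 37 °C before ATP start; rates read over 5 min at 37 °C.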

In a further assay the target is T1, JAK3 (Homo sapiens, UniProt P52333).
T1 sequence (P52333 1-1124): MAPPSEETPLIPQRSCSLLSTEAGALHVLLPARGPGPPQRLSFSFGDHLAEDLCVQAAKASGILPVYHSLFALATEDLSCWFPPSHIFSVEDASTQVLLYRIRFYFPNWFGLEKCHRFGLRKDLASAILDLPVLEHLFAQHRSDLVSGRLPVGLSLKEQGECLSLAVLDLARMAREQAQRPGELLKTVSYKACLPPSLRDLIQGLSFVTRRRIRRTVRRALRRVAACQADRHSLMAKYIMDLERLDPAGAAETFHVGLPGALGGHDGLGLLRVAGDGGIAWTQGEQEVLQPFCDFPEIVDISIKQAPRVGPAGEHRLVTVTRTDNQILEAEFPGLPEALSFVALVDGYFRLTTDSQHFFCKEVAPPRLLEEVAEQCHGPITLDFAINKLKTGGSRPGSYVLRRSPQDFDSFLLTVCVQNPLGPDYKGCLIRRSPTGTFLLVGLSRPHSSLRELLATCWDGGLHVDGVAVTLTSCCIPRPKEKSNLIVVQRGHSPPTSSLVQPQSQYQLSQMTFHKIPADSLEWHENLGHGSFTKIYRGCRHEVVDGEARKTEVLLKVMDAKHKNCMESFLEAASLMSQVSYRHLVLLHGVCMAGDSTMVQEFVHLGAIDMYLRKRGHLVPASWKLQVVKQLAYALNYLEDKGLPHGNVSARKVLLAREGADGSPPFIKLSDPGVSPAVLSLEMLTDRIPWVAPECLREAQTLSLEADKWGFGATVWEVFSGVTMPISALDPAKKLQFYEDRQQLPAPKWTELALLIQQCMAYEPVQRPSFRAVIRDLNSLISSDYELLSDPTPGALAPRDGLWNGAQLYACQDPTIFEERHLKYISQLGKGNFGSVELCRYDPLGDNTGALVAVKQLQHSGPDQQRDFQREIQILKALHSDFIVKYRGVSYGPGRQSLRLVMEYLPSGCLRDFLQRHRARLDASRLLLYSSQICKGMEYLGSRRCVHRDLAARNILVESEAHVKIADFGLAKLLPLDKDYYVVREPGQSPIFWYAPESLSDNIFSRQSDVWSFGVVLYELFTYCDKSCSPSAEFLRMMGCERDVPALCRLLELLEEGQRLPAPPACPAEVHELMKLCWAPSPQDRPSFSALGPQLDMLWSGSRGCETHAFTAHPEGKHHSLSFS
Description: JAK3 inhibition assay (ELISA, Poly (Glu, Ala, Tyr) coated plates). The format is biochemical. The note with it: 2 mM ATP, 60 minutes at 30° C. The procedure, abridged:
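ELISA on Poly(Glu,Ala,Tyr) 6:3:1-coated plates with 2 mM ATP and 5 mM MgCl2. JAK enzyme started the reaction, run 60 min at 30° C. Phosphotyrosine was detected with HRP-conjugated 4G10 antibody and TMB, read at 450 nm, and IC50 was derived from optical densities.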

Structures are written as SMILES. Where “and” joins values, the source holds several entries; their conditions need not be identical. Equal values may be shown once. Where only a bound is given, the exact number is not on record here.

Sequence of KDR (P35968 20-1356): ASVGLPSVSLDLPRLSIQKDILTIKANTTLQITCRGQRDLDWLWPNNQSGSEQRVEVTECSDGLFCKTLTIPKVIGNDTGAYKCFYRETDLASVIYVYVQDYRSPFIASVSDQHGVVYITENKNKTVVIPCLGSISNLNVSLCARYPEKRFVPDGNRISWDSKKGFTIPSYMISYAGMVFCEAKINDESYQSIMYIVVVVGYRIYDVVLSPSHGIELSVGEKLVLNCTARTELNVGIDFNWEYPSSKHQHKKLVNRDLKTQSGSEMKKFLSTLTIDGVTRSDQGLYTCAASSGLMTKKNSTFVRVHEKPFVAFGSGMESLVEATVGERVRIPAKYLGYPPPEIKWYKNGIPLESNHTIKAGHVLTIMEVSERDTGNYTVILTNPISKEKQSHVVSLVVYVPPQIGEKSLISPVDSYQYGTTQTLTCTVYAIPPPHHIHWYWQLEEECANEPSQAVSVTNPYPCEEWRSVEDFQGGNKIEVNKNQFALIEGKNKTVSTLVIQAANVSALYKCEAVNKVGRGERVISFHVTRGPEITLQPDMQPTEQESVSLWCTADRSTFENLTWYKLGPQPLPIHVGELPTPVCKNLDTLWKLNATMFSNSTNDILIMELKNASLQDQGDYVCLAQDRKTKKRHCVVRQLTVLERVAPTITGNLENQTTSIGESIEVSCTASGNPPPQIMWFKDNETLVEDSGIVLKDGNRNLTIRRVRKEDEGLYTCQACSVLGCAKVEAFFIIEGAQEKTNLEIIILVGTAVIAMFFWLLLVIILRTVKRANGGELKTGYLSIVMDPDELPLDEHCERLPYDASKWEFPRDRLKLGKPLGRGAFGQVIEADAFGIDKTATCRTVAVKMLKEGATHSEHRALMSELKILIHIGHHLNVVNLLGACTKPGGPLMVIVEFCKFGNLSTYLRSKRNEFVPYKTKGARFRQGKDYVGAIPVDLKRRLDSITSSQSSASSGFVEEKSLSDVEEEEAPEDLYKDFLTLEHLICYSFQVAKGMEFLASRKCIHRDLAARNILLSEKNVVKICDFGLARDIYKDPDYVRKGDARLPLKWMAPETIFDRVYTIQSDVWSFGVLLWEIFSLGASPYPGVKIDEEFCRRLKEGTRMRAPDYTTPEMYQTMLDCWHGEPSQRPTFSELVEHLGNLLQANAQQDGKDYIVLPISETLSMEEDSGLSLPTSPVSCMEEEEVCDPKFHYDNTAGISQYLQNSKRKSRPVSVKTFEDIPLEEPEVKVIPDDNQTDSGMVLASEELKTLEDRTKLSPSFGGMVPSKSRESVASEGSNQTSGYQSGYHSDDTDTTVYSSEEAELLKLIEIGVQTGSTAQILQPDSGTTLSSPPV

In general, Ki refers to a dissociation constant, usually derived from enzyme kinetics or from competition with a known ligand. The low end stands for a stronger hold on the target, the high end for a looser hold on the target. On to `CN1CCN(c2ccc(-c3cnc4[nH]cc(-c5nncn5-c5cccc(F)c5F)c4c3)cn2)CC1` [Compound 112], for which the Ki on KDR fell in the range of 200 to 1000 nM; on JAK3, 1000 to 12500 nM.

For `OC1CCN(c2ccc(-c3cnc4[nH]cc(-c5nncn5-c5cccc(F)c5F)c4c3)cn2)CC1` [Compound 116, 5′-{3-[4-(2,3-Difluoro-phenyl)-4H-[1,2,4]triazol-3-yl]-1H-pyrrolo[2,3-b]pyridin-5-yl}-3,4,5,6-tetrahydro-2H-[1,2′]bi-pyridinyl-4-ol], the Ki at KDR and at JAK3 was 200 to 1000 nM in each case.

Regarding `CS(=O)(=O)NC1CC=C(c2cnc3[nH]cc(-c4oncc4-c4cccc(F)c4F)c3c2)CC1` (stereo not drawn) [Compound 140, N-(4-{3-[4-(2,3-Difluoro-phenyl)-isoxazol-5-yl]-1H-pyrrolo[2,3-b]pyridin-5-yl}-cyclohex-3-enyl)-methanesulfonamide], the Ki at KDR and at JAK3 was under 200 nM each time.

Take `Clc1cccc(-c2cnoc2-c2c[nH]c3ncccc23)c1Cl` [Compound 2, 3-[4-(2,3-Dichloro-phenyl)-isoxazol-5-yl]-1H-pyrrolo[2,3-b]pyridine]: the Ki at KDR and at JAK3 was 200 to 1000 nM in each case.

Regarding `Oc1cnc2[nH]cc(-c3oncc3-c3cccc(Cl)c3Cl)c2c1` [Compound 48, 3-[4-(2,3-Dichloro-phenyl)-isoxazol-5-yl]-1H-pyrrolo[2,3-b]pyridin-5-ol], the Ki at KDR and on JAK3 was under 200 nM in each case.

Turning to `CN(C)c1ccnc(-c2cnc3[nH]cc(-c4oncc4-c4cccc(F)c4F)c3c2)c1` [Compound 80, (2-{3-[4-(2,3-Difluoro-phenyl)-isoxazol-5-yl]-1H-pyrrolo[2,3-b]pyridin-5-yl}-pyridin-4-yl)-dimethyl-amine], the Ki on KDR is under 200 nM; at JAK3 it was 1000 to 12500 nM.

For `Nc1cccc(-c2cnc3[nH]cc(-c4oncc4-c4cccc(F)c4F)c3c2)c1` [Compound 86, 3-{3-[4-(2,3-Difluoro-phenyl)-isoxazol-5-yl]-1H-pyrrolo [2,3-b]pyridin-5-yl}-phenylamine], the inhibition constant (Ki) on KDR was < 200 nM and 1000 to 12500 nM; at JAK3, under 200 nM.

Consider `CN(C)CC#Cc1cnc2[nH]cc(-c3oncc3-c3cccc(F)c3F)c2c1` [Compound 53, (3-{3-[4-(2,3-Difluoro-phenyl)-isoxazol-5-yl]-1H-pyrrolo[2,3-b]pyridin-5-yl}-prop-2-ynyl)-dimethyl-amine], for which the Ki on KDR and on JAK3 was 200 to 1000 nM in each case.

`CN1CCN(c2ccc(-c3cnc4[nH]cc(-c5nncn5-c5cccc(F)c5F)c4c3)cc2)CC1` [Compound 110, 3-[4-(2,3-Difluoro-phenyl)-4H-[1,2,4]triazol-3-yl]-5-[4-(4-methyl-piperazin-1-yl)-phenyl]-1H-pyrrolo[2,3-b]pyridine]: the Ki on KDR and on JAK3 was 200 to 1000 nM each time.

Take `COc1cncc(-c2cnc3[nH]cc(-c4oncc4-c4cccc(F)c4F)c3c2)c1` [Compound 96, 3-[4-(2,3-Difluoro-phenyl)-isoxazol-5-yl]-5-(5-methoxy-pyridin-3-yl)-1H-pyrrolo[2,3-b]pyridine]: the Ki at KDR and on JAK3 was under 200 nM each time.

On to `Fc1cccc(-c2cnoc2-c2c[nH]c3ncc(-c4cccnc4)cc23)c1F` [Compound 59, 3-[4-(2,3-Difluoro-phenyl)-isoxazol-5-yl]-5-pyridin-3-yl-1H-pyrrolo[2,3-b]pyridine], for which the Ki was 200 to 1000 nM on KDR and under 200 nM at JAK3.

Consider `Nc1ccc(-c2cnc3[nH]cc(-c4oncc4-c4cccc(F)c4F)c3c2)cc1` [Compound 90, 4-{3-[4-(2,3-Difluoro-phenyl)-isoxazol-5-yl]-1H-pyrrolo [2,3-b]pyridin-5-yl}-phenylamine], for which the inhibition constant Ki at KDR and on JAK3 was under 200 nM throughout.

Regarding `Fc1cccc(-c2cnoc2-c2c[nH]c3ncc(-c4ccc(CN5CCOCC5)cc4)cc23)c1F` [Compound 92, 3-[4-(2,3-Difluoro-phenyl)-isoxazol-5-yl]-5-(4-morpholin-4-ylmethyl-phenyl)-1H-pyrrolo[2,3-b]pyridine], the results for the Ki at KDR and at JAK3 were 200 to 1000 nM and under 200 nM, respectively.

Consider `CN1CCN(Cc2ccc(-c3cnc4[nH]cc(-c5oncc5-c5cccc(F)c5F)c4c3)cc2)CC1` [Compound 94, 3-[4-(2,3-Difluoro-phenyl)-isoxazol-5-yl]-5-[4-(4-methyl-piperazin-1-ylmethyl)-phenyl]-1H-pyrrolo[2,3-b]pyridine], for which the Ki at KDR and at JAK3 was under 200 nM each time.

`Fc1cccc(-c2cnoc2-c2c[nH]c3ncc(C4=CCC(NCc5ccccc5)CC4)cc23)c1F` (stereo not drawn) [Compound 136, Benzyl-(4-{3-[4-(2,3-difluoro-phenyl)-isoxazol-5-yl]-1H-pyrrolo[2,3-b]pyridin-5-yl}-cyclohex-3-enyl)-amine]: the Ki at KDR is 200 to 1000 nM; at JAK3 it was under 200 nM.

As to `COc1ccnc(-c2cnc3[nH]cc(-c4oncc4-c4cccc(F)c4F)c3c2)c1` [Compound 78, 3-[4-(2,3-Difluoro-phenyl)-isoxazol-5-yl]-5-(4-methoxy-pyridin-2-yl)-1H-pyrrolo[2,3-b]pyridine], the inhibitory constant (Ki) was under 200 nM at KDR and 200 to 1000 nM on JAK3.

With `Fc1cccc(-c2cnoc2-c2c[nH]c3ncc(-c4ccc(CN5CCCC5)cc4)cc23)c1F` [Compound 93, 3-[4-(2,3-Difluoro-phenyl)-isoxazol-5-yl]-5-(4-pyrrolidin-1-ylmethyl-phenyl)-1H-pyrrolo[2,3-b]pyridine], the Ki on KDR and at JAK3 was under 200 nM each time.

Regarding `CC(=O)Nc1cccc(-c2cnc3[nH]cc(-c4oncc4-c4cccc(F)c4F)c3c2)c1` [Compound 65, N-(3-{3-[4-(2,3-Difluoro-phenyl)-isoxazol-5-yl]-1H-pyrrolo[2,3-b]pyridin-5-yl}-phenyl)-acetamide], the inhibition constant Ki at KDR and on JAK3 was under 200 nM throughout.

For the compound `CN(C)c1cccc(-c2cnc3[nH]cc(-c4oncc4-c4cccc(F)c4F)c3c2)c1` [Compound 61, (3-{3-[4-(2,3-Difluoro-phenyl)-isoxazol-5-yl]-1H-pyrrolo[2,3-b]pyridin-5-yl}-phenyl)-dimethyl-amine], the Ki on KDR and on JAK3 was 200 to 1000 nM throughout.

With `Fc1cccc(-n2cnnc2-c2c[nH]c3ncc(-c4ccc(CN5CCOCC5)cc4)cc23)c1F` [Compound 109, 3-[4-(2,3-Difluoro-phenyl)-4H-[1,2,4]triazol-3-yl]-5-(4-morpholin-4-ylmethyl-phenyl)-1H-pyrrolo[2,3-b]pyridine], the Ki at KDR and at JAK3 was 200 to 1000 nM throughout.

`Cc1noc(-c2c[nH]c3ncc(-c4ccc(N5CCN(C)CC5)cc4)cc23)c1-c1cccc(F)c1F` [Compound 135, 3-[4-(2,3-Difluoro-phenyl)-3-methyl-isoxazol-5-yl]-5-[4-(4-methyl-piperazin-1-yl)-phenyl]-1H-pyrrolo[2,3-b]pyridine]: the Ki on KDR is 200 to 1000 nM; on JAK3, under 200 nM.

Regarding `CC(=O)Nc1ccc(-c2cnc3[nH]cc(-c4oncc4-c4cccc(F)c4F)c3c2)cc1` [Compound 95, N-(4-{3-[4-(2,3-Difluoro-phenyl)-isoxazol-5-yl]-1H-pyrrolo[2,3-b]pyridin-5-yl}-phenyl)-acetamide], the Ki at KDR is 200 to 1000 nM; at JAK3, under 200 nM.

On to `Fc1cccc(Cc2cnoc2-c2c[nH]c3ncccc23)c1F` [Compound 36, 3-[4-(2,3-Difluoro-benzyl)-isoxazol-5-yl]-1H-pyrrolo[2,3-b]pyridine], for which the Ki on KDR and on JAK3 was 1000 to 12500 nM throughout.

Turning to `Fc1cccc(-c2cnoc2-c2c[nH]c3ncc(/C=C/n4cncn4)cc23)c1F` [Compound 133, 3-[4-(2,3-Difluoro-phenyl)-isoxazol-5-yl]-5-(2-[1,2,4]triazol-1-yl-vinyl)-1H-pyrrolo[2,3-b]pyridine], the inhibitory constant (Ki) at KDR and on JAK3 was under 200 nM each time.

Values taken from patent publication US7446199B2, “Compositions useful as inhibitors of protein kinases” (Vertex Pharmaceuticals Incorporated, priority 2003, dated 2008).
